Results: patent US7485640B2, “Imidazopyrazinones as GABA-A receptor anxiolytics” (Merck Sharp & Dohme Limited, priority 2002, dated 2009)

melting point: 224 °C
SMILES: CN1CCn2c(-c3ccc(F)c(-c4ccc(F)cc4C#N)c3)cnc2C1=O [Example 22, 4,2′-Difluoro-5′-(7-methyl-8-oxo-5,6,7,8-tetrahydroimidazo[1,2-a]pyrazin-3-yl)biphenyl-2-carbonitrile]
